Test: Solubility assessment as a function of HPβCD concentration
Type: physicochemical
Conditions: water
Protocol: Solubility studies were performed by the addition of a known mass of 5(6)-methoxy-2-[[(4-methoxy-3,5-dimethyl-2-pyridinyl)-methyl]sulfinyl]-1H- benzimidazole and/or HP CD to a given volume of solvent system. Solubilities were determined by observation, as the maximum concentration at which 5(6)-methoxy-2-[[(4-methoxy-3,5-dimethyl-2-pyridinyl)-methyl]sulfinyl]-1H- benzimidazole completely dissolved. Additionally, concentrations of 5(6)-methoxy-2-[[(4-methoxy-3,5-dimethyl-2-pyridinyl)-methyl]sulfinyl]-1H- benzimidazole and HP C D at set molar ratios were solubilized in systems of high pH (adjusted as high as 12.2, with 1N NaOH), the pH was adjusted (using 2N HCl) in a stepwise downward manner until precipitation occurred.
The solubility of 5(6)-methoxy-2-[[(4-methoxy-3,5-dimethyl-2-pyridinyl)-methyl]sulfinyl]-1H- benzimidazole was assessed as a function of HPβCD concentration in water.
The procedure according to Example 86 was repeated except that water with a borate buffer (pH of 8) was employed.
The procedure according to Example 86 was repeated except that water with a phosphate buffer (pH of 11) was employed.

COc1ccc2[nH]c([S+]([O-])Cc3ncc(C)c(OC)c3C)nc2c1 (centres unmarked) [5(6)-methoxy-2-[[(4-methoxy-3,5-dimethyl-2-pyridinyl)-methyl]sulfinyl]-1H-benzimidazole]
Solubility as a function of HPβCD concentration: increase linearly as a function of HPβCD concentration
influence of pH on solubility: influenced by solution pH

Source: patent US6316020A, “Pharmaceutical formulations” (priority 2000, dated 2001)
